The values below are quoted from earlier work in patent publication US9751843B2, “Substituted uracils and use thereof” (Bayer Pharma Aktiengesellschaft, priority 2013, dated 2017).

In this series the test system is chymase.
[1] abbreviates: hamsters, myocardial infarction model.

SMILES strings stand for the structures.

As for `CCOc1ccccc1CC1C(=O)N(C(=O)NC(c2ccc(C)cc2)c2ccc(C)cc2)C1Oc1ccc(C(=O)O)cc1` (stereo not drawn) [BCEAB], the chymase activity result (hamster, in vivo) is given as “reduced”. Moreover, under setting [1], the hemodynamics entry is listed as “improved” and the mortality entry is on record as “reduced”.
